Measurements published in ChEMBL document CHEMBL5543083, “3,5-Disubstituted-thiazolidine-2,4-dione hybrids as antidiabetic agents: Design, synthesis, in-vitro and In vivo evaluation” (Eur J Med Chem, 2024).
In brackets after ≈: the same amount, converted by molar mass. Activity calls are given as the source filed them. The calls are words filed in the database; no cut-off is given here.

How the values were obtained:
Alpha-glucosidase = Alpha-glucosidase (Saccharomyces cerevisiae S288c, UniProt P53341+P38158+P07265); test: Inhibition of yeast Alpha glucosidase 4-nitrophenyl-alpha-D-glucopyranoside incubated for 15 to 20 mins by Bio-rad microplate reader analysis; type: protein assay
Alpha-amylase = target: T1, Alpha-amylase (Sus scrofa domesticus, UniProt Q7M328); test: Inhibition of porcine pancreatic Alpha-amylase using starch as substrate preincubated for 10 mins followed by substrate addition and measured after 15 mins by Bio-rad microplate reader analysis
T1 sequence (Q7M328 whole entry): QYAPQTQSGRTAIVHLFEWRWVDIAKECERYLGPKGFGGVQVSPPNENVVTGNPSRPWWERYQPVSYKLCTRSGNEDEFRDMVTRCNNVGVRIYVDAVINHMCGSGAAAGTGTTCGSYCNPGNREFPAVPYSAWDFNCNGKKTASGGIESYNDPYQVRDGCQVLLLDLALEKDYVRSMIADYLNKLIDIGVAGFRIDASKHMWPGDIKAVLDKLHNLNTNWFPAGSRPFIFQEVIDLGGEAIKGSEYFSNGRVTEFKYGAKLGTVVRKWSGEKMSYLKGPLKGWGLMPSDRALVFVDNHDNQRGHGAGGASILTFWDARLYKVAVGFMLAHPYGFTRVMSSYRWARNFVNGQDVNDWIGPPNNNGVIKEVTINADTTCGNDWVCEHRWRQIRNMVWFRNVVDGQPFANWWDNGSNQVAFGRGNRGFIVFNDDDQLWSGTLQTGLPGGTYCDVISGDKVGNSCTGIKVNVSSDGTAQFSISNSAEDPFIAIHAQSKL

[1] = Antioxidant activity assessed as DPPH radical scavenging activity measured for 30 mins by spectrophotometric analysis; type: functional
PANC-1 [2] = test: Cytotoxicity against human PANC-1 cells assessed as inhibition of cell growth; type: functional, cell-based
[3] = Inhibition of Alpha glucosidase (unknown origin); parameters: species or system Homo sapiens
PANC-1 [4] = test: Induction of ROS production in high glucose-induced human PANC-1 cells assessed as maximum fluorescence intensity at 10 uM incubated for 30 mins DCFDA-staining based flow cytometry analysis (reference value: 15.09); type: functional; settings: 0.5 h
Alpha amylase = target: T2, Alpha amylase (Homo sapiens, UniProt P0DUB6); test: Inhibition of Alpha-amylase (unknown origin); type: protein assay
T2 sequence (P0DUB6 whole entry): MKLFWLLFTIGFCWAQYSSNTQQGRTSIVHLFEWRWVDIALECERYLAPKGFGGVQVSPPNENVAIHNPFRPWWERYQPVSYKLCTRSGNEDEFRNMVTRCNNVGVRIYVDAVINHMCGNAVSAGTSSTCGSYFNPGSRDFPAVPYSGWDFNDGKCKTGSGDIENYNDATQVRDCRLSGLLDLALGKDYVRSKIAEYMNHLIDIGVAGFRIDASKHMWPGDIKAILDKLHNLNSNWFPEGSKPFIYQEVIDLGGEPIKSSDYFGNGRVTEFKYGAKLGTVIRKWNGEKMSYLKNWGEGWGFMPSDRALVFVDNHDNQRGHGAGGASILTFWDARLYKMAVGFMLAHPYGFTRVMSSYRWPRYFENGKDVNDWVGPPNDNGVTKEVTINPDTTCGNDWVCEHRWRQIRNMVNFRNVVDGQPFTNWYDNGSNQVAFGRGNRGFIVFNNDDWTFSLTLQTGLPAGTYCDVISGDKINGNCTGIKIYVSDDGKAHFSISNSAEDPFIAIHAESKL

Rattus norvegicus [5] = test: Antidiabetic activity against streptozotocin-induced Wistar rat assessed as decrease in blood glucose level at 10 mg/kg, po measured at 30 mins by oral glucose test; type: functional, organism-based
[6] = Toxicity in Wistar rat assessed as decrease in body weight at 10 mg/kg, po measured on day 14; type: organism-based; settings: in vivo, 336 h, time 14 day
[7] = Toxicity in Wistar rat assessed as decrease in body weight at 10 mg/kg, po measured on day 35; type: organism-based; settings: in vivo, 840 h, time 35 day
Rattus norvegicus [8] = test: Antidiabetic activity against streptozotocin-induced Wistar rat assessed as effect on blood glucose level at 10 mg/kg, po measured on day 1; type: functional, organism-based; settings: time 1.0 day
Rattus norvegicus [9] = test: Antidiabetic activity against streptozotocin-induced Wistar rat assessed as effect on blood glucose level at 10 mg/kg, po measured on day 4; type: functional, organism-based; settings: time 4.0 day
Rattus norvegicus [10] = test: Antidiabetic activity against streptozotocin-induced Wistar rat assessed as increase in PPAR-gamma level at 10 mg/kg, po measured upto 35 days by ELISA analysis; type: functional, organism-based; settings: time <= 35.0 day
Rattus norvegicus [11] = test: Antidiabetic activity against streptozotocin-induced Wistar rat assessed as decrease in HDL level at 10 mg/kg, po measured upto 35 days; type: functional, organism-based; settings: time <= 35.0 day
Rattus norvegicus [12] = test: Antidiabetic activity against streptozotocin-induced Wistar rat assessed as decrease in triglyceride level at 10 mg/kg, po measured upto 35 days; type: functional, organism-based; settings: time <= 35.0 day
Rattus norvegicus [13] = test: Antidiabetic activity against streptozotocin-induced Wistar rat assessed as decrease in MDA level at 10 mg/kg, po measured upto 35 days; type: functional, organism-based; settings: time <= 35.0 day
Rattus norvegicus [14] = test: Antidiabetic activity against streptozotocin-induced Wistar rat assessed as decrease in SOD level at 10 mg/kg, po measured upto 35 days; type: functional, organism-based; settings: time <= 35.0 day
Rattus norvegicus [15] = test: Antidiabetic activity against Wistar rat assessed as effect on glutathione level at 10 mg/kg, po measured upto 35 days; type: functional, organism-based; settings: time <= 35.0 day
Rattus norvegicus [16] = test: Antidiabetic activity against streptozotocin-induced Wistar rat assessed as increase in serum ALP level at 10 mg/kg, po measured upto 35 days; type: functional, organism-based; settings: time <= 35.0 day
Rattus norvegicus [17] = test: Antidiabetic activity against streptozotocin-induced Wistar rat assessed as increase in IL1-beta level in Pancreas at 10 mg/kg, po measured upto 35 days; type: functional, organism-based; settings: time <= 35.0 day
[18] = Toxicity in streptozotocin-induced Wistar rat assessed as change in blood lymphocyte count at 10 mg/kg, po measured up to 35 days; type: organism-based; settings: in vivo, 840 h, time < 35 day
[19] = Toxicity in streptozotocin-induced Wistar rat assessed as decrease in glomeruli shrinkage in kidney at 10 mg/kg, po measured up to 35 days; type: organism-based; settings: in vivo, 840 h, time < 35 day
[20] = Toxicity in streptozotocin-induced Wistar rat assessed as morphological changes in liver at 10 mg/kg, po measured up to 35 days; type: organism-based; settings: in vivo, 840 h, time < 35 day
[21] = Homo sapiens, PANC-1, read-out: IC50

| SMILES | IC50 (Alpha-glucosidase) [µM] | IC50 (Alpha-amylase; read-out: IC50) [µM] | IC50 ([1]; read-out: IC50) [µM] | IC50 (PANC-1 [2]; [21]) [µM] | Flu intensity (PANC-1 [4]) | also measured |
| --- | --- | --- | --- | --- | --- | --- |
| COc1cc(/C=C2\SC(=O)N(Cc3cccc([N+](=O)[O-])c3)C2=O)cc(OC)c1OC | 39.68 | 39.3 | 68 | 195 |  |  |
| O=C1S/C(=C\c2ccc3c(c2)OCO3)C(=O)N1Cc1cn(-c2ccccc2Cl)nn1 |  |  |  |  |  | IC50 [3]: 0.1 µg/mL (≈ 0.227 µM) |
| O=C1S/C(=C\c2ccc(Cl)cc2)C(=O)N1Cc1cccc([N+](=O)[O-])c1 | 22.61 | 44.7 | 32.2 | 94.9 |  |  |
| COc1ccc(/C=C2\SC(=O)N(Cc3cccc([N+](=O)[O-])c3)C2=O)cc1O | 32.94 | 28 | 70.9 | 215 | 72737 |  |
| O=C(O)CN1C(=O)S/C(=C\c2cn(-c3ccccc3)nc2-c2ccc([N+](=O)[O-])cc2)C1=O |  |  |  |  |  | IC50 (Alpha amylase): 4.08 µg/mL (≈ 9.06 µM) |
| COc1cc(/C=C2\SC(=O)N(Cc3cccc([N+](=O)[O-])c3)C2=O)ccc1O | 19.73 | 40.5 | 38.1 | 190 | 66221 |  |
| C[C@H]1O[C@H](O[C@H]2[C@H](O)[C@@H](O)[C@@H](O[C@H]3[C@H](O)[C@@H](O)C(O)O[C@@H]3CO)O[C@@H]2CO)[C@H](O)[C@@H](O)[C@@H]1N[C@H]1C=C(CO)[C@@H](O)[C@H](O)[C@H]1O (some centres undefined) [ACARBOSE] |  |  |  |  | 1455 | IC50 [1]: Not Active; IC50 (PANC-1 [2]; panc-1): Not Active |
| COc1ccc(/C=C2\SC(=O)N(Cc3cccc([N+](=O)[O-])c3)C2=O)c(OC)c1 | 65.52 | 30.2 | 32.1 | 166 | 37797 |  |
| COc1ccc(OC)c(/C=C2\SC(=O)N(Cc3cccc([N+](=O)[O-])c3)C2=O)c1 | 201 | 48.1 | 41.8 | 62.6 | 58455 |  |
| COc1cccc(/C=C2\SC(=O)N(Cc3cccc([N+](=O)[O-])c3)C2=O)c1OC | 153.1 | 79.1 | 13.6 | 179 | 2271 |  |
| N#Cc1ccccc1-c1ccc(N2C(=O)S/C(=C\c3ccccc3Oc3ccccc3)C2=O)cc1 |  |  |  |  |  | IC50 (Alpha amylase): 0.13 µg/mL (≈ 0.274 µM) |
| COc1cc(OC)c(/C=C2\SC(=O)N(Cc3cccc([N+](=O)[O-])c3)C2=O)c(OC)c1 | 11.37 | 44.6 | 28.4 | 178 | 22596 |  |
| O=C1S/C(=C\c2c(Cl)cccc2Cl)C(=O)N1Cc1cccc([N+](=O)[O-])c1 | 37.94 | 25.1 | 31.1 | 123 | 25204 |  |
| O=C1O[C@H]([C@@H](O)CO)C(O)=C1O [ASCORBIC ACID] |  |  | 25.1 |  |  | IC50 (Alpha-amylase): Not Active |
| COc1cc(OC)c(OC)cc1/C=C1\SC(=O)N(Cc2cccc([N+](=O)[O-])c2)C1=O | 54.01 | 30.8 | 30.6 | 203 | 25238 |  |
| CN(C)c1ccc(/C=C2\SC(=O)N(Cc3cccc([N+](=O)[O-])c3)C2=O)cc1 | 16.9 | 81.1 | 211 | 194 | 76992 |  |
| O=C1S/C(=C\c2cccc(Cl)c2Cl)C(=O)N1Cc1cccc([N+](=O)[O-])c1 | 54 | 30.4 | 44.6 | 179 | 65017 |  |
| O=C1S/C(=C\c2ccc(-c3ccccc3)cc2)C(=O)N1Cc1cccc([N+](=O)[O-])c1 | 15.37 | 82.2 | 32.6 | 126 | 23092 |  |
| COc1ccc(/C=C2\SC(=O)N(Cc3cccc([N+](=O)[O-])c3)C2=O)cc1 | 57.1 | 118 | 325 | 104 | 84568 |  |
| O=C1S/C(=C\c2ccc(O)cc2)C(=O)N1Cc1cccc([N+](=O)[O-])c1 | 29.28 | 42.9 | 34.9 | 32 | 35829 |  |
| O=C1S/C(=C\c2c[nH]c3ccccc23)C(=O)N1Cc1ccccc1 | 25.76 | 82.2 | 30.2 | 191 | 22679 |  |
| C=CCN1C(=O)S/C(=C\c2ccc(Cl)cc2Cl)C1=O |  |  |  |  |  | IC50 [3]: 18.19 µg/mL (≈ 57.9 µM); IC50 (Alpha amylase): 43.85 µg/mL (≈ 140 µM) |
| CCc1ccc(CCOc2ccc(CC3SC(=O)NC3=O)cc2)nc1 (centres undefined) [PIOGLITAZONE] |  |  |  |  |  | Activity (Rattus norvegicus [5]): Active; Activity [6]: Non-Toxic; Activity [7]: Toxic; Activity (Rattus norvegicus [8]): Active; Activity (Rattus norvegicus [9]): Active; Activity (Rattus norvegicus [10]): Active; Activity (Rattus norvegicus [11]): Active; Activity (Rattus norvegicus [12]): Active; Activity (Rattus norvegicus [13]): Active; Activity (Rattus norvegicus [14]): Active; Activity (Rattus norvegicus [15]): Active; Activity (Rattus norvegicus [16]): Active; Activity (Rattus norvegicus [17]): Active; Activity [18]: Non-Toxic; Activity [19]: Toxic; Activity [20]: Non-Toxic |
